Test results published in US8236509B2, “Method for preparing antibody monolayers which have controlled orientation using peptide hybrid” (Korea Research Institute of Bioscience and Biotechnology, priority 2007, dated 2012).
Entries after “also recorded” stand apart in the source; their conditions may differ.

Experiments:
HIgG3 = assay: SPR binding capacity, antibody isotypes; parameters: species or system human; conditions: CM-5 Au sensor chip
Description: (§1) Then, PBS containing 100 μM of the peptide hybrid was spilled thereon at the same speed for 30 minutes. […] The surface area remaining non-reacted with the peptide hybrid was inactivated by using 1 M of ethanolamine solution (pH 8.5).

HIgG2 = assay: SPR binding capacity, antibody isotypes; parameters: species or system human; conditions: CM-5 Au sensor chip
Description: as §1

HIgG1 [1] = assay: SPR binding capacity, antibody isotypes; parameters: species or system human; conditions: CM-5 Au sensor chip
Description: as §1

[2] = system: HIgG (mixture of HIgG 1-HIgG 3); assay: Cy3-labeled antibody binding to glass plate surface-treated with peptide hybrid (fluorescence); parameters: species or system human; conditions: fluorescence image
Description: (§2) The glass plate was treated with a mixed solution of 95% sulfuric acid and 5% hydrogen peroxide (V/V 3:1) at 60° C. for 30 minutes, followed by washing with distilled water and ethanol. The washed glass plate was soaked in 1% APTS, followed by reaction for 4 hours at room temperature to introduce amine group. The amine group introduced glass plate was reacted in 1 M succinic anhydride-DMF solution at 37° C. for 4 hours to generate carboxyl group on the glass plate. The glass plate was washed with distilled water and ethanol and dried using nitrogen gas and then stored in a vacuum drier. The carboxyl group introduced glass plate was treated with a mixed solution of 0.1 M EDC and 0.025 M NHS for 15 minutes to activate its surface. The activated glass plate was washed with distilled water and dried using nitrogen gas. The peptide hybrid for protein immobilization of 1a was dissolved in PBS containing 40% glycerol at the final concentration of 0.5 mg/ml, which was dropped on the glass plate by 1 μl per each drop, followed by reaction for 2 hours. The non-reacted active ester remaining on the glass plate was inactivated by using 1 M of ethanolamine (pH 8.5) and washed with PBS. […]

HIgG1 [3] = assay: SPR binding affinity (Biacore 3000, nonlinear regression); parameters: species or system human; conditions: antibody 100-1,000 nM, CM-5 chip
Description: The values were analyzed by nonlinear regression using BIAevaluation software equipped in Biacore 3000 to draw a theoretical line graph (FIG. 4a).

MIgG2 = assay: SPR binding capacity, antibody isotypes; parameters: species or system mouse; conditions: CM-5 Au sensor chip
Description: as §1

MIgGA = assay: SPR binding capacity, antibody isotypes; parameters: species or system mouse; conditions: CM-5 Au sensor chip
Description: as §1

MIgG3 = assay: SPR binding capacity, antibody isotypes; parameters: species or system mouse; conditions: CM-5 Au sensor chip
Description: as §1

goat IgG = assay: Cy3-labeled antibody binding to glass plate surface-treated with peptide hybrid (fluorescence); conditions: fluorescence image
Description: as §2

goat originated IgG = assay: Antibody binding to magnetic micro beads surface-treated with peptide hybrid (PAGE); conditions: antibody 0.1 mg/ml, bead 2 mg/ml
Description: (§3) The surface of the magnetic micro bead containing a carboxyl group was activated by loading 25 mM of MES (pH 6) containing NHS (0.4 M) and EDC (0.2 M). Only magnetic micro bead was recovered by using a magnet and the activated magnetic micro bead was reacted with 0.2 mg/ml of the peptide hybrid of 1a at room temperature for one hour. The activated magnetic micro bead was reacted with PBS alone for the control group. Non-reacted active ester group was inactivated by using 1 M of ethanolamine (pH 8.5). Both the magnetic micro bead with the peptide hybrid of 1a attached and the magnetic micro bead without the peptide hybrid of 1a were repeatedly washed by PBS and diluted in PBS (final concentration: 5 mg/ml).
(§4) To confirm the binding of the magnetic micro bead adhered with the peptide hybrid of 1a to the antibody, 2 mg/ml (final concentration) of the magnetic micro bead and 0.1 mg/ml of the antibody used in Example <3-2> were mixed to induce binding reaction. After inducing reaction for one hour at room temperature, the magnetic micro bead was dragged down to the bottom of the vessel by using a magnet and the supernatant was eliminated. This process was repeated five times to remove the non-reacted antibodies. The magnetic micro bead reacted with the antibody was added in PAGE loading buffer containing a reducing agent (2-mercaptoethanol), which was heated to separate the antibody chain from the magnetic micro bead, followed by PAGE.
(§5) The antibody bound to the magnetic micro bead was quantified by using 12% polyacrylamide gel containing 10% SDS. Particularly, 20 μl of PBS containing 2% micro bead was mixed with 5 μl of sample buffer (pH 6.8; 60 mM Tris-HCl, 25% glycerol, 2% SDS, 14.4 mM 2-mercaptoethanol, 0.1% bromophenol blue, H2O), followed by heating at 90° C. for 10 minutes. 15 μl of the sample was placed on each well of polyacrylamide gel. 200 V of voltage was applied thereto at room temperature for one hour to migrate sample, followed by dipping the gel in the staining solution (0.5% coomassie blue, 45% methanol, 10% acetic acid solution) at room temperature for 30 minutes. Upon completion of staining, the gel was transferred into the destaining solution (10% methanol, 10% acetic acid solution), followed by stirring at room temperature for 3 hours. The excessive staining reagent was eliminated by washing.

rabbit originated IgG [4] = target: T1, rabbit originated IgG (Oryctolagus cuniculus, UniProt P01870); assay: as above; conditions: antibody 0.1 mg/ml, bead 2 mg/ml
T1 construct: purchased Sigma-Aldrich (USA)
Description: as §3, §4, §5

mouse originated IgG = assay: as above; conditions: antibody 0.1 mg/ml, bead 2 mg/ml
Description: as §3, §4, §5

human originated HIgG = assay: as above; conditions: antibody 0.1 mg/ml, bead 2 mg/ml
Description: as §3, §4, §5

[5] = system: human originated IgG (HIgGs 1-3); assay: SPR binding capacity on peptide-hybrid-treated CM-5 Au sensor chip
Description: as §1

rabbit originated IgG [6] = target: T1, rabbit originated IgG; assay: as above
Description: as §1

goat originated antibody = assay: as above
Description: as §1

[7] = system: mouse originated antibodies (mixed composition of MIgGs 1-3); assay: as above
Description: as §1

[8] = Storage stability of glass plate surface-treated with peptide hybrid; assay type: physicochemical; conditions: several months storage at room temperature
Description: The glass plate was treated with a mixed solution of 95% sulfuric acid and 5% hydrogen peroxide (V/V 3:1) at 60° C. for 30 minutes, followed by washing with distilled water and ethanol. The washed glass plate was soaked in 1% APTS, followed by reaction for 4 hours at room temperature to introduce amine group. The amine group introduced glass plate was reacted in 1 M succinic anhydride-DMF solution at 37° C. for 4 hours to generate carboxyl group on the glass plate. The glass plate was washed with distilled water and ethanol and dried using nitrogen gas and then stored in a vacuum drier. The carboxyl group introduced glass plate was treated with a mixed solution of 0.1 M EDC and 0.025 M NHS for 15 minutes to activate its surface. The activated glass plate was washed with distilled water and dried using nitrogen gas. The peptide hybrid for protein immobilization of 1a was dissolved in PBS containing 40% glycerol at the final concentration of 0.5 mg/ml, which was dropped on the glass plate by 1 μl per each drop, followed by reaction for 2 hours. The non-reacted active ester remaining on the glass plate was inactivated by using 1 M of ethanolamine (pH 8.5) and washed with PBS.
The Cy3 labeled antibody solution was dropped on the glass plate surface-treated with the hybrid of 1a by 50 μl per each drop, followed by reaction for one hour at room temperature. […]

[9] = Stability of peptide-treated chip surface to washing with 20 mM NaOH and reuse; assay type: physicochemical; conditions: CM-5 chip, reused for antigen-antibody binding
rabbit IgG [10] = target: T2, rabbit IgG (Oryctolagus cuniculus, UniProt P01870); assay: Cy3-labeled antibody binding to glass plate surface-treated with peptide hybrid (fluorescence); parameters: purchased Sigma-Aldrich (USA); conditions: fluorescence image
Description: as §2

[11] = system: MIgG (mixture of MIgG 1-MIgG 3); assay: as above; parameters: species or system mouse; conditions: fluorescence image
Description: as §2

BSA = BSA (Bos taurus, UniProt P02769); assay: SPR binding capacity on peptide-hybrid-treated CM-5 Au sensor chip (control protein)
Description: as §1

CRP = conditions: SPR, CRP 5 μg/ml, anti-CRP antibody immobilized via the hybrid
Description: Then, PBS containing CRP at the same concentration as the above was spilled thereon, followed by measuring the antigen-antibody binding by surface plasmon resonance (SPR) using Biacore 3000. The surface of the chip was recovered by 20 mM NaOH solution for the repeat of the experiment to measure the antigen-antibody binding.
A buffer containing 0.2 M EDC and 0.05 M NHS was spilled on the dextran CM-5 Au sensor chip (BIacore AB, Sweden) at the speed of 7 μl/minute to activate carboxyl group on the surface of the sensor chip. Then, PBS containing 5 μg/ml of anti-CRP antibody was spilled thereon for 30 minutes at the same speed. The antibody was bound via the reaction of the terminal amine group with the carboxyl group on the sensor chip activated as NHS ester form. The surface not reacted with the antibody was inactivated by using 1 M ethanolamine solution (pH 8.5).
PBS containing 5 μg/ml of CRP was spilled on the anti-CRP antibody chip with the chemical immobilization and the anti-CRP antibody chip with the immobilization by the peptide hybrid of 1a respectively at the speed of 10 μl/minute, followed by measuring the degree of antigen-antibody binding by surface plasmon resonance using Biacore 3000.

rabbit IgG [12] = target: T2, rabbit IgG; assay: biochemical
MIgG1 = target: T3, MIgG1 (Mus musculus, UniProt P01868); assay: SPR binding capacity, antibody isotypes; conditions: CM-5 Au sensor chip
T3 construct: purchased Sigma-Aldrich (USA)
Description: as §1

[13] = system: human, rabbit, mouse and goat antibodies; assay: SPR binding capacity on peptide-hybrid-treated CM-5 Au sensor chip, different antibodies; conditions: antibody 5 μg/ml in PBS
Description: as §1

T1 sequence (P01870 whole entry): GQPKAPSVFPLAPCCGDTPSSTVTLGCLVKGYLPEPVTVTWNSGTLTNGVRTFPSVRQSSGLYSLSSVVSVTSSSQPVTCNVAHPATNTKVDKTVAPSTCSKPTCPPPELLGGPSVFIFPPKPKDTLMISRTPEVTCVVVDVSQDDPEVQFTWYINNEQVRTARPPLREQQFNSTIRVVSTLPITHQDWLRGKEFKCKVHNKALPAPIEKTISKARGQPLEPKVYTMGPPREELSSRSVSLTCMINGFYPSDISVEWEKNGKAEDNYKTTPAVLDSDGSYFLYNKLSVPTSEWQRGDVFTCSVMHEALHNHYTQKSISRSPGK
T2 sequence (P01870 whole entry): as above

## CC(C)C[C@@H]1NC(=O)[C@H](Cc2c[nH]cn2)NC(=O)[C@H](Cc2c[nH]c3ccccc23)NC(=O)[C@H](C)NC(=O)[C@@H](NC(=O)[C@H](CC(=O)O)NC(=O)[C@H](CC(=O)O)NC(=O)[C@H](CCC(=O)O)NC(=O)CCOCCOCCN)CSSC[C@@H](C(=O)N[C@H](C(N)=O)[C@@H](C)O)NC(=O)[C@H](Cc2c[nH]c3ccccc23)NC(=O)[C@H](C(C)C)NC(=O)[C@H](CC(C)C)NC(=O)[C@H](CCC(=O)O)NC(=O)CNC1=O [formula 1a, H2N(CH2CH2O)2CH2CH2COEDDC*AWHLGELVWC*T-CONH2]
HIgG3
  binding to HIgG3 (SPR), in words: barely bound
HIgG2
  binding to HIgG2 (SPR), in words: particularly strongly bound; also recorded: effectively bound
HIgG1 [1]
  binding to HIgG1 (SPR), in words: particularly strongly bound; also recorded: effectively bound
[2]
  binding of human originated antibodies to glass plate: bound very well
HIgG1 [3]
  Kd: 85 nM
MIgG2
  binding to MIgG2 (SPR), in words: hardly bound
MIgGA
  binding to MIgGA (SPR), in words: hardly bound
MIgG3
  binding to MIgG3 (SPR), in words: to some degree
Goat IgG
  binding of goat originated antibodies to glass plate: not bound well
Goat originated IgG
  binding to goat originated IgG, magnetic micro bead: not
Rabbit originated IgG [4]
  binding to rabbit originated IgG, magnetic micro bead: effectively bound
Mouse originated IgG
  binding to mouse originated IgG, magnetic micro bead: not
Human originated HIgG
  binding to human originated HIgG, magnetic micro bead: effectively bound
[5]
  binding to human originated antibodies (SPR), in words: immobilized effectively
[5]; saturated level
  SPR binding level, human originated IgG: 12000 RU
Rabbit originated IgG [6]
  binding to rabbit originated antibodies (SPR), in words: immobilized effectively
Rabbit originated IgG [6]; saturated level
  SPR binding level, rabbit originated IgG: 12000 RU
Goat originated antibody
  binding to goat originated antibody (SPR), in words: not successfully immobilized; also recorded: only at minimum level
[7]
  binding to mouse originated antibodies (SPR), in words: not successfully immobilized; also recorded: only at minimum level
[8]
  antibody binding capacity of surface-treated glass plate after storage: maintain its antibody binding capacity
[9]
  antibody binding capacity of the peptide-treated surface after washing with 20 mM NaOH: without reducing the antibody binding capacity; also recorded: antibody binding capacity was not reduced
Rabbit IgG [10]
  binding of rabbit originated antibodies to glass plate: bound very well
[11]
  binding of mouse originated antibodies to glass plate: not bound well
BSA
  binding to BSA (SPR), in words: not bound
CRP
  antigen-antibody binding capacity relative to chip with chemically immobilized anti-CRP antibody: approximately 1.6 fold
Rabbit IgG [12]
  Kd: 305 nM
MIgG1
  binding to MIgG1 (SPR), in words: hardly bound

## H2N(CH2CH2O)nCH2CH2COXDC*AWHLGELVWC*T-CONH2 [formula 1]
[5]
  binding to human originated antibodies (SPR), in words: strongly bound
Rabbit originated IgG [6]
  binding to rabbit originated antibodies (SPR), in words: strongly bound
[13]
  binding to the different types of antibodies (SPR): strongly attached
